According to US9422231B2, “Method for inhibiting Trypanosoma cruzi” (HOWARD UNIVERSITY, priority 2011, dated 2016):
Values joined by “and” are separate entries in the source; they are usually repeats but may differ in a detail not shown here. Equal entries are not always repeated. Where two headings read alike, the source gives them in different places.

Experiments:
[1] = test system: T. cruzi epimastigotes; settings: Ramos et al., 2009; cited from earlier work
[2] = test system: Trypanosoma cruzi epimastigotes (Tulahuen CL98 strain); experiment: Antitrypanosomal activity against Trypanosoma cruzi epimastigotes (parasite count); assay type: cell-based; settings: for IC50: T. cruzi epimastigotes, 48 h, mean ± S.E. of three experiments, read-out: Antitrypanocidal activity IC50; for Selectivity index greater/better than nifurtimox: in vitro selectivity index relative to nifurtimox; for Selectivity Index (Cytotoxicity/Activity): ratio of IC50 for fibroblast cells/IC50 for parasites
Experimental: (§1) The antitrypanosomal activity against Trypanosoma cruzi was assayed. Trypanosoma cruzi epimastigotes (Tulahuen CL98 strain) were cultured in liver infusion trypose (LIT) medium supplemented with 10% fetal bovine serum (FBS) at 28° C., with an inoculum of 1×10^5 cells/ml. […] All assays were carried out in triplicate. […] The data were subjected to statistical analysis. All experiments were done in triplicate, the means and standard errors (S.E.) were determined. Data were analyzed by one way ANOVA and Tukey's multiple comparison test using GraphPad PRISM software version 5.00. P<0.05 was considered significant.

[3] = test system: Balb/C 3T3 mouse fibroblasts (clone A31); experiment: MTT cytotoxicity assay on Balb/C 3T3 mouse fibroblasts; assay type: cell-based; settings: for Cytotoxicity compared with nifurtimox: Balb/C 3T3 mouse fibroblast cell line, FIG. 4; for IC50: 48 h
Experimental: (§2) A cytotoxicity assay was performed with representive analogs IMNDQ1 through IMNDQ11. […] MTT is a yellow tetrazolium salt that is reduced to purple formazan crystals by metabolically active cells. Cells (2.2×10^4 cells/well) were seeded in 96-well plate in Improved Minimum Essential Medium (IMEM). […] After 48 h incubation at 37° C. in the presence 5% CO2, the medium was aspirated and the cells washed twice to remove traces of chemical compounds. IMEM without phenol containing 10% (v/v) of 3 mg/ml MTT were added to each well. The plates were incubated for 4 h at 37° C. followed by aspiration. The plates were dried for 1 h in a 37° C. incubator. 100 μl of 0.04 N HCl in isopropanol were added to each well and incubated at room temperature (27° C.) in the dark for 2 h to dissolve the formazan crystals. The absorbance was measured spectrophotometrically at 570 nm in a plate reader. The concentration that reduces cell viability by 50% (IC50) was calculated for each compound. The toxicity for mammalian cells and the activity against T. cruzi were compared by calculating the selectivity index (SI), the ratio of IC50 for fibroblast cells/IC50 for parasites. The data were subjected to statistical analysis. All experiments were done in triplicate, the means and standard errors (S.E.) were determined. Data were analyzed by one way ANOVA and Tukey's multiple comparison test using GraphPad PRISM software version 5.00. P<0.05 was considered significant.

[4] = molecular target: purified Trypanosoma cruzi tublin (Trypanosoma cruzi, UniProt P08562+Q27352); experiment: Tubulin assembly assay; assay type: biochemical; settings: purified T. cruzi tubulin 1.2 mg/ml, absorbance at 405 nm, 30° C.; read-out: Tubulin polymerization Inhibition IC50
Experimental: Tubulin assembly assays were conducted to assess tubulin polymerization inhibition. The assays were conducted in a 96-well microplate. Assembly reactions were conducted in a buffer containing 0.1 M PIPES (pH 6.9), 1 mM EGTA, 5 mM Mgcl, 1.2 mg/ml purified Trypanosoma cruzi tublin, at concentrations (0.6-40 μM) of the imido-substituted 1,4-naphthoquinone (IMDNQ 1-IMDNQ 11). Components of the reaction mixtures were added to the microplate and assembly was initiated by the addition of 1 mM GTP. The assembly reactions were assayed photometrically by measuring the absorbance at 405 nm using a microplate reader at 30° C.

[5] = MTT cytotoxicity assay on Balb/C 3T3 mouse fibroblasts; assay type: cell-based; settings: mouse, Cytotoxicity IC50
Experimental: as §2

[6] = Antitrypanosomal activity against Trypanosoma cruzi epimastigotes (parasite count); assay type: cell-based; settings: mouse (fibroblasts) / Trypanosoma cruzi (parasites); ratio of IC50 for fibroblast cells/IC50 for parasites; read-out: Selectivity Index (Cytotoxicity/Activity)
Experimental: as §1

[7] = Balb/C 3T3 mouse fibroblasts, MTT, mean ± S.E. of three experiments, read-out: Cytotoxicity IC50

Compound	melting point	IC50 [2]	Selectivity Index (Cytotoxicity/Activity) [2]	further results
O=C1C(c2ccccc2)=C(c2ccccc2)C(=O)c2ccccc21 [2,3-diphenyl-1,4-naphthoquinone]				LD50 [1]: 2.5 µM
O=C1C(Cl)=C(N(C(=O)c2ccccc2)C(=O)c2ccccc2)C(=O)c2ccccc21 [Example 20, 2-Dibenzoylamino-3-chloro-1,4-naphthoquinone]	294 to 297 °C			
O=C1C(Br)=C(N(C(=O)c2ccccc2)C(=O)c2ccccc2)C(=O)c2ccccc21 [Example 21, 2-Dibenzoylamino-3-bromo-1,4-naphthoquinone]	234 to 238 °C			
O=C1C(Br)=C(N(C(=O)c2cccc(Cl)c2)C(=O)c2cccc(Cl)c2)C(=O)c2ccccc21 [Example 22, 2-bis-(3-chlorobenzoyl)amino-3-bromo-1,4-naphthoquinone]	204 to 206 °C			
O=C1C(Br)=C(N(C(=O)c2ccc(Cl)cc2)C(=O)c2ccc(Cl)cc2)C(=O)c2ccccc21 [Example 23, 2-bis-(4-chlorobenzoyl)amino-3-bromo-1,4-naphthoquinone]	266 to 269 °C			
CC(C)(C)c1ccc(C(=O)N(C(=O)c2ccc(C(C)(C)C)cc2)C2=C(Cl)C(=O)c3ccccc3C2=O)cc1 [Example 24, 2-bis-(4-tert-butylbenzoyl)amino-3-chloro-1,4-naphthoquinone]	257 to 260 °C			
COc1ccc(C(=O)N(C(=O)c2ccc(OC)cc2)C2=C(Cl)C(=O)c3ccccc3C2=O)cc1 [Example 28, 2-bis-(4-methoxybenzoyl)amino-3-chloro-1,4-naphthoquinone]	283 to 287 °C			
O=C1C(Cl)=C(N2C(=O)CCC2=O)C(=O)c2ccccc21 [IMDNQ1, 2-chloro-3-(N-succinimidyl)-1,4-naphthoquinone]		2.77 µM	60.25 and 60.25 ± 2.79	Selectivity index greater/better than nifurtimox [2]: at least 300%; Cytotoxicity compared with nifurtimox [3]: far less cytotoxic than nifurtimox; IC50 [3, 7]: > 100 µM and 166 µM; IC50 [4]: 6 µM
O=C1C(Cl)=C(N2C(=O)c3ccccc3C2=O)C(=O)c2ccccc21 [IMDNQ2]		4.89 µM and 4.83 µM	53.97 and 53.97 ± 5.95	Selectivity index greater/better than nifurtimox [2]: at least 300%; Cytotoxicity compared with nifurtimox [3]: far less cytotoxic than nifurtimox; IC50 [3, 7]: 253.7 ± 1.87 µM; IC50 [4]: 12 µM
CCCC(=O)N(C(=O)CCC)C1=C(Cl)C(=O)c2ccccc2C1=O [IMDNQ3]		0.7 µM	31.83 and 31.83 ± 3.17	IC50 [3, 7]: 21.7 µM; IC50 [4]: 3.2 µM
O=C1C(Cl)=C(N2C(=O)COCC2=O)C(=O)c2ccccc21 [IMDNQ4]		4.93 ± 0.64 µM	7.43 ± 0.97	IC50 [3, 7]: 35.5 ± 1.76 µM
O=C1C(Br)=C(N(C(=O)c2ccc(F)cc2)C(=O)c2ccc(F)cc2)C(=O)c2ccccc21 [IMDNQ5, N-(3-Bromo-1,4-dioxo-1,4-dihydronaphthalen-2-yl)-4-fluoro-N-(4-fluorobenzoyl)-benzamide]	170 to 172 °C	2.27 ± 0.15 µM	5.70 ± 0.06	IC50 at 48 h [5]: 12.8 µM
O=C1C(Br)=C(N(C(=O)c2ccccc2Cl)C(=O)c2ccccc2Cl)C(=O)c2ccccc21 [IMDNQ6, N-(3-Bromo-1,4-dioxo-1,4-dihydronaphthalen-2-yl)-2-chloro-N-(2-chlorobenzoyl)-benzamide]	232 to 234 °C		9.43 ± 0.94	IC50 ([2]; Trypanosoma cruzi, TULAHUEN): 1.51 µM; IC50 at 48 h [5]: 14.2 µM
O=C1C(Cl)=C(N(C(=O)c2ccc(Cl)cc2)C(=O)c2ccc(Cl)cc2)C(=O)c2ccccc21 [IMDNQ7, 4-Chloro-N-(4-chlorobenzoyl)-N-(3-chloro-1,4-dioxo-1,4-dihydronaphthalen-2-yl)-benzamide]	212 to 213 °C		14.23 ± 1.62	IC50 ([2]; Trypanosoma cruzi, TULAHUEN): 1.27 ± 0.15 µM; IC50 ([3]; mouse): 17.8 ± 2.21 µM
O=C1C(Cl)=C(N(C(=O)c2ccccc2Cl)C(=O)c2ccccc2Cl)C(=O)c2ccccc21 [IMDNQ8, 2-Chloro-N-(2-chlorobenzoyl)-N-(3-chloro-1,4-dioxo-1,4-dihydronaphthalen-2-yl)-benzamide]	217 to 218 °C	2.67 ± 0.33 µM	10.17 ± 0.97	IC50 at 48 h [5]: 26.5 µM
O=C1C(Cl)=C(N(C(=O)c2ccc(F)cc2)C(=O)c2ccc(F)cc2)C(=O)c2ccccc21 [IMDNQ9, N-(3-Chloro-1,4-dioxo-1,4-dihydronaphthalen-2-yl)-4-fluoro-N-(4-fluorobenzoyl)-benzamide]	284 to 286 °C	4.07 ± 0.23 µM	5.43 ± 0.69	IC50 at 48 h [5]: 21.8 µM
O=C1C(Cl)=C(N(C(=O)c2cccc(Cl)c2)C(=O)c2cccc(Cl)c2)C(=O)c2ccccc21 [IMDNQ10, 3-Chloro-N-(3-chlorobenzoyl)-N-(3-chloro-1,4-dioxo-1,4-dihydronaphthalen-2-yl)-benzamide]	258 to 260 °C			selectivity ratio at 48 h [6]: 275; IC50 ([2]; Trypanosoma cruzi, TULAHUEN): 2.23 µM; Selectivity index, times better than nifurtimox ([2]; calculated selectivity index relative to nifurtimox): about 25 times; Selectivity index greater/better than nifurtimox [2]: at least 300%; IC50 ([3]; mouse): 611 ± 10.3 µM; IC50 [4]: 8 µM
O=C1C(Cl)=C(N(C(=O)CCl)C(=O)CCl)C(=O)c2ccccc21 [IMDNQ11]		6.1 ± 0.38 µM	3.20 ± 0.44	IC50 [3, 7]: 19.7 ± 3.71 µM; IC50 [4]: > 40 µM
CC1CS(=O)(=O)CCN1/N=C/c1ccc([N+](=O)[O-])o1 (stereo not shown) [Nifurtimox, reference compound]		10.7 µM		
